# Measurements taken from ChEMBL document CHEMBL1126417, “Indazole as an indole bioisostere: 5-HT4 receptor antagonism” (Bioorg Med Chem Lett, 1992).
# What was measured:
# [1] = target: Serotonin 4 (5-HT4) receptor (Sus scrofa) (UniProt Q6Q253); test: Evaluated for the 5-hydroxytryptamine 4 receptor antagonistic activity in piglet atrium model; type: functional, tissue-based; conditions: Cardiac atrium
# [2] = target: Serotonin 3 (5-HT3) receptor (Homo sapiens) (UniProt P46098+A5X5Y0+O95264+Q70Z44+Q8WXA8)
# Description: Evaluated for the 5-hydroxytryptamine 3 receptor antagonistic activity in Bezold-Jarisch model expressed as inhibition of the reflex bradycardia induced by an intravenous injection
# Chain of Serotonin 4 (5-HT4) receptor (Sus scrofa) (Q6Q253 as listed by the source): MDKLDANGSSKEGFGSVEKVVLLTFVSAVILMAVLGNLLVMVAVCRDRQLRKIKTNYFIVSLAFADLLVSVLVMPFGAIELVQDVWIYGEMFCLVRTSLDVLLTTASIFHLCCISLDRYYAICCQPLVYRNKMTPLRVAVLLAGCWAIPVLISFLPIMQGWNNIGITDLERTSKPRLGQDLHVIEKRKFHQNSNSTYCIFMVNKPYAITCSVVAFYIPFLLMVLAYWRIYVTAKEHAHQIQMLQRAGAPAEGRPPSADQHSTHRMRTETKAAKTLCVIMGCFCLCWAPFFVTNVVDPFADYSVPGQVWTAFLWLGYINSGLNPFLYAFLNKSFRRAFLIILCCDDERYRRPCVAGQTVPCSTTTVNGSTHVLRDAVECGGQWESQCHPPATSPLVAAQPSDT
Structure (SMILES),-Log KB [1],ID50 [2] [µg/kg]
CN1C2CCC1CC(NC(=O)N1CC(C)(C)c3ccccc31)C2 (stereo not given),4.9,–
CN1[C@@H]2CC[C@H]1C[C@H](NC(=O)c1nn(C)c3ccccc13)C2,6.5,–
CN1C2CCCC1CC(NC(=O)c1[nH]nc3ccccc13)C2 (stereo not given),5,1
CN1[C@@H]2CC[C@H]1C[C@@H](OC(=O)c1c[nH]c3ccccc13)C2,6.9,1.4
CN1C2CCC1CC(OC(=O)c1[nH]nc3ccccc13)C2 (stereo not given),7.2,5
CN1C2CCC1CC(NC(=O)c1n[nH]c3ccccc13)C2 (stereo not given),6.8,1.5
